From ChEMBL document CHEMBL1142762, “Identification of 4-methyl-1,2,3,4,10,10a-hexahydropyrazino[1,2-a]indoles as 5-HT2C receptor agonists” (Bioorg Med Chem Lett, 2005)

Tests used:
[1] = target: T1, 5-hydroxytryptamine receptor 2C (Homo sapiens) (UniProt P28335); assay: Relative efficacy toward 5-HT2C receptor
T1 sequence (whole entry): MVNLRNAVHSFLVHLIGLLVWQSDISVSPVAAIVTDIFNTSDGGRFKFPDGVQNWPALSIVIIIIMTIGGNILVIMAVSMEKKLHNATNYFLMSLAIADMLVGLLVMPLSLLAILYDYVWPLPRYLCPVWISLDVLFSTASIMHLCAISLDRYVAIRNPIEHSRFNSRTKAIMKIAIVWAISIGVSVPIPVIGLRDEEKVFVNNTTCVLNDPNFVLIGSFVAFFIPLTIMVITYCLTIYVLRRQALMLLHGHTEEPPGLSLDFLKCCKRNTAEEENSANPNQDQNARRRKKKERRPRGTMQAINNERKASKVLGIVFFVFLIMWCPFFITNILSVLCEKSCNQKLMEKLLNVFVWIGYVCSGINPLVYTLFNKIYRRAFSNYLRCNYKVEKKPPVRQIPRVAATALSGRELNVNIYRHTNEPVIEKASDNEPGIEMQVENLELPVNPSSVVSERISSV

[2] = target: 5-hydroxytryptamine receptor 2B (Homo sapiens, UniProt P41595); assay: Binding affinity toward 5-HT2B receptor evaluated by displacement of [3H]5-HT radioligand
[3] = target: T2, 5-hydroxytryptamine receptor 2C (Homo sapiens, UniProt P28335); assay: Binding affinity toward 5-HT2C receptor evaluated by displacement of [3H]5-HT radioligand
T2 sequence (P28335 whole entry): T1 sequence (whole entry)

[4] = target: 5-hydroxytryptamine receptor 2A (Homo sapiens, UniProt P28223); assay: Binding affinity toward 5-HT2A receptor evaluated by displacement of [125I]DOI radioligand
Sequence of 5-hydroxytryptamine receptor 2A (P28223 whole entry): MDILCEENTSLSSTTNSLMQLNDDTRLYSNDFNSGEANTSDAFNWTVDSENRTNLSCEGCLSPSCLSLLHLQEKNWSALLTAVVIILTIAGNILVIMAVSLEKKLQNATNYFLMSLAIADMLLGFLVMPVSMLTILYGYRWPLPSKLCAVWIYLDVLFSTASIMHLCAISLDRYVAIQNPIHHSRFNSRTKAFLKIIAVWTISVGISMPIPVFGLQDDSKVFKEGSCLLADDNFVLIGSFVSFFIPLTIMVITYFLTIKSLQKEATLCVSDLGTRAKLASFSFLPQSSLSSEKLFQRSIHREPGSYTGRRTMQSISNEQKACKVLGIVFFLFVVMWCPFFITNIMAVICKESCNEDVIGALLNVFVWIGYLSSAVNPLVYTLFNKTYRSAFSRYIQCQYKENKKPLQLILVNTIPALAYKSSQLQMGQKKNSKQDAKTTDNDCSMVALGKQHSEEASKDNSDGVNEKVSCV

Sequence of 5-hydroxytryptamine receptor 2B (P41595 whole entry): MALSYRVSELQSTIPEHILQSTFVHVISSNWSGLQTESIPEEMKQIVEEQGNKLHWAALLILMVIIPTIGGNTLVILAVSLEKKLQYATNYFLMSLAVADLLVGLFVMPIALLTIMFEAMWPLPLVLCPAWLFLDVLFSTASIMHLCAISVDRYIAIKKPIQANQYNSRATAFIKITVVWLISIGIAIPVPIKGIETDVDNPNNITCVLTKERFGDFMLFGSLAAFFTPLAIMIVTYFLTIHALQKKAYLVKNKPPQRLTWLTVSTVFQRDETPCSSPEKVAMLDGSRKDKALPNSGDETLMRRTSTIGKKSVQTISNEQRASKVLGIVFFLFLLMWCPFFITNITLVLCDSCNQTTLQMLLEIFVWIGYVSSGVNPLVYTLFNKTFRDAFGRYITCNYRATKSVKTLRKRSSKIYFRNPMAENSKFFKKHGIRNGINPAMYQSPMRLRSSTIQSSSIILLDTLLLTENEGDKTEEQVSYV

Structure (SMILES) | Efficacy [1] | Ki [2] | Ki [3] | Ki [4]
C[C@@H]1CNC[C@@H]2Cc3ccccc3N21 (stereo in doubt; 8) [listing 1 of 2 here] | 87% |  |  | 
C[C@@H]1CNC[C@@H]2Cc3ccccc3N21 (stereo in doubt; 7) [listing 1 of 2 here] | 94% |  |  | 
Cc1ccc2c(c1)N1[C@@H](CNC[C@H]1C)C2 | 100% | 21 nM | 1.3 nM | 22 nM
Cc1c(Cl)ccc2c1N1[C@H](CNC[C@H]1C)C2 | 97% | 19 nM | 1.9 nM | 40 nM
C[C@@H]1CNC[C@@H]2Cc3ccccc3N21 (stereo in doubt; 7) [listing 2 of 2 here] |  | 210 nM | 13 nM | 55 nM
C[C@@H]1CNC[C@@H]2Cc3ccccc3N21 (stereo in doubt; 8) [listing 2 of 2 here] |  | 160 nM | 22 nM | 61 nM
Cc1ccc2c(c1C)N1[C@H](CNC[C@H]1C)C2 | 91% | 67 nM | 9.5 nM | 102 nM
Cc1c(Cl)ccc2c1N1[C@@H](CNC[C@H]1C)C2 | 98% | 3.2 nM | 0.3 nM | 2.6 nM
C[C@@H]1CNC[C@H]2Cc3ccccc3N21 | 97% | 15 nM | 2.2 nM | 1.9 nM
Clc1ccc2c(c1)N1CCNCC1C2 (stereo not drawn) | 99% | 53 nM | 31 nM | 32 nM
CC(=O)Nc1ccc2c(c1)N1[C@@H](CNC[C@H]1C)C2 | 24% | 960 nM | 680 nM | 1100 nM
C[C@@H]1CNC[C@H]2Cc3ccc(C(F)(F)F)cc3N21 | 94% | 11 nM | 1.4 nM | 7.5 nM
C[C@@H]1CNC[C@H]2Cc3ccc(C#N)cc3N21 | 77% | 90 nM | 3.8 nM | 110 nM
C[C@H]1CNC[C@@H]2Cc3ccccc3N21 | 62% | 2600 nM | 180 nM | 430 nM
Cc1c(Cl)ccc2c1N1CCNC[C@@H]1C2 | 80% | 140 nM | 32 nM | 52 nM
Cc1cccc2c1N1[C@@H](CNC[C@H]1C)C2 | 100% | 59 nM | 2.6 nM | 43 nM
C[C@@H]1CNC[C@H]2Cc3ccc(CO)cc3N21 | 97% | 250 nM | 34 nM | 290 nM
Cc1c(Cl)ccc2c1N1CCNC[C@H]1C2 | 90% | 10 nM | 1.5 nM | 6.2 nM
Cc1ccc2c(c1C)N1[C@@H](CNC[C@H]1C)C2 | 96% | 13 nM | 1.7 nM | 34 nM
